In the test the target is T1, estrogen receptor (Homo sapiens, UniProt P03372).
T1 construct: endogenous in cells; host or cells: ECC-1 cells
T1 sequence (P03372 1-595): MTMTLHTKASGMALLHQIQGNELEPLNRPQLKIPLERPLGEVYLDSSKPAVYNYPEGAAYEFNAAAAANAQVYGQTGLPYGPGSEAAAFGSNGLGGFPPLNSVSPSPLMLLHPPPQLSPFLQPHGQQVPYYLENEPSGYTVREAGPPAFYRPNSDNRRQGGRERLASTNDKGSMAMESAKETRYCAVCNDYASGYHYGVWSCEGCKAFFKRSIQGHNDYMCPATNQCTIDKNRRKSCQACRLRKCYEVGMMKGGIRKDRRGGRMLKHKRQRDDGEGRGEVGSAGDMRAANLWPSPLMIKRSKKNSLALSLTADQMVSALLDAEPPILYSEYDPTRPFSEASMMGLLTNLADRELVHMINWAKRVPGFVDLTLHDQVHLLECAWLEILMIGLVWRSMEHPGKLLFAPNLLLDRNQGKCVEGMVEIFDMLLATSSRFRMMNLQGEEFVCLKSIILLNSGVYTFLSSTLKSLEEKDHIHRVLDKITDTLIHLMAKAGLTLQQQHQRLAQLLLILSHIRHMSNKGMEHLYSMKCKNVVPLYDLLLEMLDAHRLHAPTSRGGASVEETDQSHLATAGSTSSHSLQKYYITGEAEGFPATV
As to the kind of experiment: AP assay (alkaline phosphatase activity in ECC-1 cells), agonist mode (absence of E2) and antagonist mode (presence of 500 pM E2). As to conditions: 3 days, AP activity normalized to 500 pM E2 alone, agonist and antagonist mode combined. The test is classed as cell-based. The gist of the method:
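ECC-1 cells in hormone-depleted medium treated with compounds for 3 days, without E2 (agonist mode) or with 500 pM E2 (antagonist mode). AP activity read at 405 nm after p-nitrophenyl phosphate substrate, 40 min at 42 °C. Signal normalized to 500 pM E2 alone.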

Molecules are shown by their SMILES.

On to `C[C@@H]1Cc2c([nH]c3ccccc23)[C@@H](c2cc(F)c3oc(CN4CC(CF)C4)nc3c2)N1CC(C)(C)F` [Compound I-79, 7-fluoro-2-[[3-(fluoromethyl)azetidin-1-yl]methyl]-5-[(1R,3R)-2-(2-fluoro-2-methyl-propyl)-3-methyl-1,3,4,9-tetrahydropyrido[3,4-b]indol-1-yl]-1,3-benzoxazole], for which the “Activity (estrogen receptor modulation, e.g., agonism and antagonism)” value (shortened to “Activity”) was “+ (estrogen receptor agonism having (i) at least 80% increase in the E2-normalized signal in the AP assay (agonist mode) and (ii) no more than 80% reduction in the E2-normalized signal in the AP assay (antagonist mode))”. As to `C[C@@H]1Cc2c([nH]c3ccccc23)[C@@H](c2ccc3oc(CN4CC(CF)C4)nc3c2)N1CC(F)(F)CO` [Compound I-80, 2,2-difluoro-3-[(1R,3R)-1-[2-[[3-(fluoromethyl)azetidin-1-yl]methyl]-1,3-benzoxazol-5-yl]-3-methyl-1,3,4,9-tetrahydropyrido[3,4-b]indol-2-yl]propan-1-ol], the “Activity” value was “+++ (estrogen receptor antagonism (i) with pIC50 greater than 7.5 and at least a 10% reduction in the E2-normalized signal in the AP assay (antagonist mode); and (ii) no more than 10% increase in E2-normalized signal in the AP assay (agonist mode))”. As for `C[C@@H]1Cc2c([nH]c3ccccc23)[C@@H](c2cc(F)c3oc(CN4CC(CF)C4)nc3c2)N1CC(F)(F)CO` [Compound I-81, 2,2-difluoro-3-[(1R,3R)-1-[7-fluoro-2-[[3-(fluoromethyl)azetidin-1-yl]methyl]-1,3-benzoxazol-5-yl]-3-methyl-1,3,4,9-tetrahydropyrido[3,4-b]indol-2-yl]propan-1-ol], the “Activity” value was “+ (estrogen receptor agonism having (i) at least 80% increase in the E2-normalized signal in the AP assay (agonist mode) and (ii) no more than 80% reduction in the E2-normalized signal in the AP assay (antagonist mode))”.

With `C[C@@H]1Cc2c([nH]c3ccccc23)[C@@H](c2ccc3oc(C4CN(CCCF)C4)nc3c2)N1CC(C)(C)F` [Compound I-82, 5-[(1R,3R)-2-(2-fluoro-2-methyl-propyl)-3-methyl-1,3,4,9-tetrahydropyrido[3,4-b]indol-1-yl]-2-[1-(3-fluoropropyl)azetidin-3-yl]-1,3-benzoxazole], the “Activity” value is “+ (estrogen receptor agonism having (i) at least 80% increase in the E2-normalized signal in the AP assay (agonist mode) and (ii) no more than 80% reduction in the E2-normalized signal in the AP assay (antagonist mode))”. Then `C[C@@H]1Cc2c([nH]c3ccccc23)[C@@H](c2ccc3[nH]c(CN4CC5(CC(F)C5)C4)cc3c2)N1CC(C)(C)F` [Compound I-87, (1R,3R)-1-(2-((6-fluoro-2-azaspiro[3.3]heptan-2-yl)methyl)-1H-indol-5-yl)-2-(2-fluoro-2-methylpropyl)-3-methyl-2,3,4,9-tetrahydro-1H-pyrido[3,4-b]indole], with “+ (estrogen receptor agonism having (i) at least 80% increase in the E2-normalized signal in the AP assay (agonist mode) and (ii) no more than 80% reduction in the E2-normalized signal in the AP assay (antagonist mode))”. Next, `C[C@@H]1Cc2c([nH]c3ccccc23)[C@@H](c2ccc3[nH]c(CN4CC(F)C4)cc3c2)N1CC(C)(C)F` [Compound I-90, (1R,3R)-1-[2-[(3-fluoroazetidin-1-yl)methyl]-1H-indol-5-yl]-2-(2-fluoro-2-methyl-propyl)-3-methyl-1,3,4,9-tetrahydropyrido[3,4-b]indole]: “+ (estrogen receptor agonism having (i) at least 80% increase in the E2-normalized signal in the AP assay (agonist mode) and (ii) no more than 80% reduction in the E2-normalized signal in the AP assay (antagonist mode))”.

The values above are taken from US20260355165A1, “2,3,4,9-TETRAHYDRO-1H-PYRIDO[3,4-B]INDOLE DERIVATIVES AS ESTROGEN RECEPTOR MODULATORS FOR THE TREATMENT OF CANCER” (Olema Pharmaceuticals, Inc., priority 2022, published 2026).
